According to ChEMBL document CHEMBL5042549, “Discovery of Inhibitors of the Lipopolysaccharide Transporter MsbA: From a Screening Hit to Potent Wild-Type Gram-Negative Activity” (J Med Chem, 2022):
Converted amounts (≈) assume the structure as drawn. “And” between values parts separate entries of the source, which are not always exact repeats. Identical values can stand only once. The source made the active and inactive calls. The calls are words filed in the database; no cut-off is given here.

Key:
[1] = system: Escherichia coli; assay: Antibacterial activity against wild type Escherichia coli MG1655 msbA-cKO lptD (imp4213) expressing Acinetobacter baumannii MsbA assessed as bacterial growth inhibition by broth microdilution assay; assay type: functional
[2] = Lipophilicity, logD of compound by shake flask method; assay type: physicochemical; conditions: octanol/water
[3] = Inhibition of Escherichia coli MsbA preincubated for 10 mins followed by ATP addition and incubated for 1 hr by fluorescence polarization assay
[4] = system: Enterobacter cloacae; assay: Antibacterial activity against wild type Enterobacter cloacae (ATCC 13047) assessed as membrane stacking at 50 microM by electron microscopy; assay type: functional, organism-based
[5] = system: Escherichia coli; assay: Antibacterial activity against wild type Escherichia coli CFT073 (ATCC 700928) assessed as induction of cell lysis at 50 microM by electron microscopy; assay type: functional, organism-based
[6] = system: Klebsiella pneumoniae; assay: Antibacterial activity against wild type Klebsiella pneumoniae MGH78578 (ATCC 700721) assessed as bacterial growth inhibition by broth microdilution assay; assay type: functional
[7] = system: Klebsiella pneumoniae; assay: Antibacterial activity against wild type Klebsiella pneumoniae MGH78578 (ATCC 700721) assessed as membrane stacking at 50 microM by electron microscopy; assay type: functional, organism-based
[8] = Half life in CD-1 mouse at 1 mg/kg, iv measured upto 8 hrs by LC-MS/MS analysis; assay type: ADME, organism-based; conditions: in vivo
[9] = system: Escherichia coli; assay: Antibacterial activity against wild type Escherichia coli MG1655 msbA-cKO lptD (imp4213) expressing Escherichia coli MsbA assessed as bacterial growth inhibition by broth microdilution assay; assay type: functional
[10] = system: Escherichia coli; assay: Antibacterial activity against wild type Escherichia coli CFT073 (ATCC 700928) assessed as bacterial growth by broth microdilution assay; assay type: functional
[11] = system: Pseudomonas aeruginosa; assay: Antibacterial activity against wild type Pseudomonas aeruginosa PA14 assessed as bacterial growth inhibition by broth microdilution assay; assay type: functional
[12] = system: Enterobacter cloacae; assay: Antibacterial activity against wild type Enterobacter cloacae (ATCC 13047) assessed as bacterial growth inhibition by broth microdilution assay; assay type: functional
[13] = system: Acinetobacter baumannii; assay: Antibacterial activity against wild type Acinetobacter baumannii (ATCC 17978) assessed as bacterial growth inhibition by broth microdilution assay; assay type: functional
[14] = system: Escherichia coli; assay: Selectivity ratio of MIC for Escherichia coli MG1655 msbA-cKO lptD (imp4213) […]; assay type: functional
[15] = Clearance in CD-1 mouse at 1 mg/kg, iv measured upto 8 hrs by LC-MS/MS analysis; assay type: ADME, organism-based; conditions: in vivo

MIC [1]: > 71 µM
logD [2]: 4.3
IC50 [3]: 3 nM
MIC [6]: 6 µM (≈ 2.71 µg/mL)
half-life [8]: 1.4 h
MIC [9]: 0.8 µM (≈ 0.361 µg/mL)
MIC [10]: 6 µM and 2.7 µg/mL
MIC [11]: > 100 µM
MIC [12]: 6 µM (≈ 2.71 µg/mL)
MIC [13]: > 100 µM
clearance [15]: 8 mL/min/kg
SMILES: C[C@H](Oc1ccc2ccc(/C=C/c3nn[nH]n3)c(C3CC3)c2c1)c1c(Cl)cccc1Cl
Activity [4]: Active
Activity [5]: Active
Activity [7]: Active
Selectivity ratio [14]: > 89
